Square brackets hold non-standard residues; d marks the D form. Peptide text beside a SMILES is read from it. Phe(4-Cl) = N[C@@H](Cc1ccc(Cl)cc1)C(=O)O; Phe(2-Me) = Cc1ccccc1C[C@H](N)C(=O)O; Arg(Me) = CNC(=N)NCCC[C@H](N)C(=O)O; Dap(CONH2) = NC(=O)NC[C@H](N)C(=O)O; Hyp = O=C(O)[C@@H]1C[C@@H](O)CN1; αMeF = C[C@](N)(Cc1ccccc1)C(=O)O; Dap = NC[C@H](N)C(=O)O; azaGly = NNC(=O)O
Molecular target: T1, hOT7T175 (Homo sapiens, UniProt Q969F8)
T1 construct: expressed in transfected cells
Assay: Assay for intracellular Ca ion level-increasing activity using FLIPR
Format: cell-based
Settings: hOT7T175/CHO cells, relative to Metastin (1-54)
Outline: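 CHO/dhfr− cells stably transfected with hOT7T175, selected for high metastin response, loaded with Fluo3-AM for 1 h at 37 °C in HANKS/HBSS (pH 7.4) with probenecid. Peptides were diluted from 1×10^−3 M DMSO stock into HANKS/HBSS with 2.5 mM probenecid, 0.2% BSA, 0.1% CHAPS; intracellular Ca rise read by FLIPR.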

T1 sequence (Q969F8 whole entry L364H): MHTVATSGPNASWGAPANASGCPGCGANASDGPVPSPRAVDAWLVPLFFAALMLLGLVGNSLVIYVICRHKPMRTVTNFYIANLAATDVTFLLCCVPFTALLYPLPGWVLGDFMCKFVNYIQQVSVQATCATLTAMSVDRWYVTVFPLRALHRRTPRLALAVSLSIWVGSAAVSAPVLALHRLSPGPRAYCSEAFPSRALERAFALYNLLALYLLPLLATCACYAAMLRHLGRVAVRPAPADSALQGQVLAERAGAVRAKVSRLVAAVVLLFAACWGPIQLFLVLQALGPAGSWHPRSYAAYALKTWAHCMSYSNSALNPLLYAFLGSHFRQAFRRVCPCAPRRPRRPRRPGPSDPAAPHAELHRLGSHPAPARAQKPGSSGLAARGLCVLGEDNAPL

In order of rising “Specific Activity: intracellular Ca ion level-increasing activity [specific activity to Metastin (1-54)]” value:
1. CNC(=N)NCCC[C@H](NC(=O)[C@H](CC(C)C)NC(=O)NNC(=O)[C@H](Cc1ccccc1C)NC(=O)[C@@H](NC(=O)[C@H](CC(N)=O)NC(=O)[C@@H]1C[C@@H](O)CN1C(=O)[C@@H](Cc1ccc(O)cc1)NC(C)=O)[C@@H](C)O)C(=O)N[C@@H](Cc1c[nH]c2ccccc12)C(N)=O [Compound No. 870, Ac-D-Tyr-Hyp-Asn-Thr-Phe(2Me)-AzaGly-Leu-Arg(Me)-Trp-NH2] (Ac-[dY][Hyp]NT[Phe(2-Me)][azaGly]L[Arg(Me)]W-NH2)  0.6
2. CNC(=N)NCCC[C@H](NC(=O)[C@H](CC(C)C)NC(=O)NNC(=O)[C@H](Cc1ccccc1)NC(=O)[C@@H](NC(=O)[C@@H](CC(N)=O)NC(=O)[C@@H]1C[C@@H](O)CN1C(=O)[C@@H](Cc1ccc(O)cc1)NC(C)=O)[C@@H](C)O)C(=O)N[C@@H](Cc1c[nH]c2ccccc12)C(N)=O [Compound No. 844, Ac-D-Tyr-Hyp-D-Asn-Thr-Phe-AzaGly-Leu-Arg(Me)-Trp-NH2] (Ac-[dY][Hyp][dN]TF[azaGly]L[Arg(Me)]W-NH2)  0.9
3. CNC(=N)NCCC[C@H](NC(=O)[C@H](CC(C)C)NC(=O)NNC(=O)[C@H](Cc1ccccc1)NC(=O)[C@@H](NC(=O)[C@H](CN)NC(=O)[C@@H]1C[C@@H](O)CN1C(=O)[C@@H](Cc1ccc(O)cc1)NC(C)=O)[C@@H](C)O)C(=O)N[C@@H](Cc1c[nH]c2ccccc12)C(N)=O [Compound No. 863, Ac-D-Tyr-Hyp-Dap-Thr-Phe-AzaGly-Leu-Arg(Me)-Trp-NH2] (Ac-[dY][Hyp][Dap]TF[azaGly]L[Arg(Me)]W-NH2)  0.9
4. CNC(=N)NCCC[C@H](NC(=O)[C@H](CC(C)C)NC(=O)NNC(=O)[C@H](Cc1ccccc1)NC(=O)[C@@H](NC(=O)[C@H](CNC(N)=O)NC(=O)[C@@H](Cc1c[nH]c2ccccc12)NC(=O)[C@@H](Cc1ccc(O)cc1)NC(C)=O)[C@@H](C)O)C(=O)N[C@@H](Cc1c[nH]c2ccccc12)C(N)=O [Compound No. 717, Ac-D-Tyr-D-Trp-Alb-Thr-Phe-AzaGly-Leu-Arg(Me)-Trp-NH2] (Ac-[dY][dW][Dap(CONH2)]TF[azaGly]L[Arg(Me)]W-NH2)  1.0
5. CNC(=N)NCCC[C@H](NC(=O)[C@H](CC(C)C)NC(=O)NNC(=O)[C@](C)(Cc1ccccc1)NC(=O)[C@@H](NC(=O)[C@H](CC(N)=O)NC(=O)[C@@H]1C[C@@H](O)CN1C(=O)[C@@H](Cc1ccc(O)cc1)NC(C)=O)[C@@H](C)O)C(=O)N[C@@H](Cc1c[nH]c2ccccc12)C(N)=O [Compound No. 868, Ac-D-Tyr-Hyp-Asn-Thr-αMePhe-AzaGly-Leu-Arg(Me)-Trp-NH2] (Ac-[dY][Hyp]NT[αMeF][azaGly]L[Arg(Me)]W-NH2)  1.4
6. CNC(=N)NCCC[C@H](NC(=O)[C@H](CC(C)C)NC(=O)NNC(=O)[C@H](Cc1ccc(Cl)cc1)NC(=O)[C@@H](NC(=O)[C@H](CC(N)=O)NC(=O)[C@H](CCC(=O)O)NC(=O)[C@@H](Cc1ccc(O)cc1)NC(C)=O)[C@@H](C)O)C(=O)N[C@@H](Cc1c[nH]c2ccccc12)C(N)=O [Compound No. 759, Ac-D-Tyr-Glu-Asn-Thr-Phe(4Cl)-AzaGly-Leu-Arg(Me)-Trp-NH2] (Ac-[dY]ENT[Phe(4-Cl)][azaGly]L[Arg(Me)]W-NH2)  1.9
7. CNC(=N)NCCC[C@H](NC(=O)[C@H](CC(C)C)NC(=O)NNC(=O)[C@H](Cc1ccccc1)NC(=O)[C@@H](NC(=O)[C@H](CC(N)=O)NC(=O)[C@@H]1C[C@@H](O)CN1C(=O)[C@@H](Cc1ccc(O)cc1)NC(C)=O)[C@@H](C)O)C(=O)N[C@@H](Cc1c[nH]c2ccccc12)C(N)=O [Compound No. 723, Ac-D-Tyr-Hyp-Asn-Thr-Phe-AzaGly-Leu-Arg(Me)-Trp-NH2] (Ac-[dY][Hyp]NTF[azaGly]L[Arg(Me)]W-NH2)  2.0
8. Ac-D-Tyr-Aze(3)-Asn-Thr-Phe-AzaGly-Leu-Arg(Me)-Trp-NH2 [Compound No. 730]  4.1

— patent publication US8404643B2, “Metastin derivatives and use thereof” (priority 2005, dated 2013)
